Laboratory results reported in PubChem BioAssay AID1963985 (Molecular Pharmacology Branch, DTP, NCI, 2024).

Test system: 252836-082-R-J2-PDC tumor spheroids, viability
Test: Anticancer human tumor 252836-082-R-J2-PDC patient-derived head and neck squamous cell carcinoma cell line growth inhibition [PI3K]
Conditions: spheroids with HUVEC and MSC; for viability, T/C: stronger effect = lower value
How it was run: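 Multi-cell spheroids combine tumor cells with HUVEC and human MSCs, treated with targeted agents alone or with inavolisib, alpelisib, duvelisib or copanlisib. Concentrations fall in half-log steps from at or near clinical Cmax, or from 10 microM where Cmax is unknown; viability read-out.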

[1] = curve of first compound, second compound 0.0316 µM
[2] = curve of first compound, second compound 0.1 µM
[3] = curve of first compound, second compound 0.316 µM
[4] = curve of first compound, second compound 1 µM
[5] = curve of first compound, second compound 3.16 µM
[6] = curve of first compound, second compound 10 µM
[7] = second compound 0.0316 µM, first compound 0.0316 µM
[8] = second compound 0.0316 µM, first compound 0.1 µM
[9] = second compound 0.0316 µM, first compound 0.316 µM
[10] = second compound 0.0316 µM, first compound 1 µM
[11] = second compound 0.0316 µM, first compound 3.16 µM
[12] = second compound 0.0316 µM, first compound 10 µM
[13] = second compound 0.1 µM, first compound 0.0316 µM
[14] = second compound 0.1 µM, first compound 0.1 µM
[15] = second compound 0.1 µM, first compound 0.316 µM
[16] = second compound 0.1 µM, first compound 1 µM
[17] = second compound 0.1 µM, first compound 3.16 µM
[18] = second compound 0.1 µM, first compound 10 µM
[19] = second compound 0.316 µM, first compound 0.0316 µM
[20] = second compound 0.316 µM, first compound 0.1 µM
[21] = second compound 0.316 µM, first compound 0.316 µM
[22] = second compound 0.316 µM, first compound 1 µM
[23] = second compound 0.316 µM, first compound 3.16 µM
[24] = second compound 0.316 µM, first compound 10 µM
[25] = second compound 1 µM, first compound 0.0316 µM
[26] = second compound 1 µM, first compound 0.1 µM
[27] = second compound 1 µM, first compound 0.316 µM
[28] = second compound 1 µM, first compound 1 µM
[29] = second compound 1 µM, first compound 3.16 µM
[30] = second compound 1 µM, first compound 10 µM
[31] = second compound 3.16 µM, first compound 0.0316 µM
[32] = second compound 3.16 µM, first compound 0.1 µM
[33] = second compound 3.16 µM, first compound 0.316 µM
[34] = second compound 3.16 µM, first compound 1 µM
[35] = second compound 3.16 µM, first compound 3.16 µM
[36] = second compound 3.16 µM, first compound 10 µM
[37] = second compound 10 µM, first compound 0.0316 µM
[38] = second compound 10 µM, first compound 0.1 µM
[39] = second compound 10 µM, first compound 0.316 µM
[40] = second compound 10 µM, first compound 1 µM
[41] = second compound 10 µM, first compound 3.16 µM
[42] = second compound 10 µM, first compound 10 µM
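Further: spheroids exposed to agents for seven days before readout.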
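Wherever viability, T/C is given: percent of vehicle DMSO control viability so 100% = untreated growth.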

With CCCS(=O)(=O)Nc1ccc(F)c(C(=O)c2c[nH]c3ncc(-c4ccc(Cl)cc4)cc23)c1F + Cc1nc(NC(=O)N2CCCC2C(N)=O)sc1-c1ccnc(C(C)(C)C(F)(F)F)c1 the IC50 [1] was 5160 nM, the IC50 [2] was 4740 nM and the IC50 [3] was 4210 nM. For the same compound, the IC50 [4] was 3490 nM, the IC50 [5] was 31.6 nM and the IC50 [6] was < 31.6 nM. The viability, T/C [7] was 94.2%, the viability, T/C [8] was 95.6% and the viability, T/C [9] was 79.9%. For the same compound, the viability, T/C [10] was 84.7%, the viability, T/C [11] was 83.7% and the viability, T/C [12] was 4.52%. For the same compound, the viability, T/C [13] was 84.3%, the viability, T/C [14] was 84.3% and the viability, T/C [15] was 86.2%. It also gave a viability, T/C [16] of 96.3%, a viability, T/C [17] of 75.1% and a viability, T/C [18] of 3.91%. For the same compound, the viability, T/C [19] was 73.2%, the viability, T/C [20] was 62% and the viability, T/C [21] was 80.9%. The viability, T/C [22] was 78.2%, the viability, T/C [23] was 63.4% and the viability, T/C [24] was 5.17%. For the same compound, the viability, T/C [25] was 58.1%, the viability, T/C [26] was 52.7% and the viability, T/C [27] was 64.8%. It also gave a viability, T/C [28] of 57.5%, a viability, T/C [29] of 54.2% and a viability, T/C [30] of 4.7%. For the same compound, the viability, T/C [31] was 52.2%, the viability, T/C [32] was 38.9% and the viability, T/C [33] was 50.9%. For the same compound, the viability, T/C [34] was 54.1%, the viability, T/C [35] was 37.2% and the viability, T/C [36] was 7.19%. It also gave a viability, T/C [37] of 39.7%, a viability, T/C [38] of 35.7% and a viability, T/C [39] of 43.7%. The viability, T/C [40] was 37.8%, the viability, T/C [41] was 21.2% and the viability, T/C [42] was 4.33%.
CCCS(=O)(=O)Nc1ccc(F)c(C(=O)c2c[nH]c3ncc(-c4ccc(Cl)cc4)cc23)c1F was tested, and the viability, T/C (compound 0.0316 µM) was 99% [middle of 4 runs], the viability, T/C (compound 1 µM) was 96.2% [middle of 4 runs] and the viability, T/C (compound 3.16 µM) was 90% [middle of 4 runs]. For the same compound, the viability, T/C (compound 10 µM) was 8.42% [middle of 4 runs] and the IC50 (curve of compound) was 5.49 µM [middle of 4 runs].
For CC(Cn1ccc(-c2ccc(C#N)c(Cl)c2)n1)NC(=O)c1cc(C(C)O)[nH]n1 (stereo not drawn), the viability, T/C (compound 0.0316 µM) was 93.6% [middle of 4 runs], the viability, T/C (compound 0.1 µM) was 88.4% [middle of 4 runs] and the viability, T/C (compound 0.316 µM) was 98.8% [middle of 4 runs]. For the same compound, the viability, T/C (compound 1 µM) was 97.2% [middle of 4 runs], the viability, T/C (compound 3.16 µM) was 92.5% [middle of 4 runs] and the viability, T/C (compound 10 µM) was 91.9% [middle of 4 runs]. For the same compound, the IC50 (curve of compound) was > 10000 nM.
With CC1(C)CCC(Nc2ncc(C(F)(F)F)c(-c3c[nH]c4c(P(C)(C)=O)c(C#N)ccc34)n2)CN1 (stereo not drawn) + CC(Nc1ncnc2nc[nH]c12)c1cc2cccc(Cl)c2c(=O)n1-c1ccccc1 the IC50 [1] was < 31.6 nM, the IC50 [2] was < 31.6 nM and the IC50 [3] was < 31.6 nM. For the same compound, the IC50 [4] was < 31.6 nM, the IC50 [5] was < 31.6 nM and the IC50 [6] was < 31.6 nM. For the same compound, the viability, T/C [7] was 31.1%, the viability, T/C [8] was 26.6% and the viability, T/C [9] was 28.6%. For the same compound, the viability, T/C [10] was 32.2%, the viability, T/C [11] was 34.7% and the viability, T/C [12] was 4.13%. It also gave a viability, T/C [13] of 34.2%, a viability, T/C [14] of 27.4% and a viability, T/C [15] of 31.6%. The viability, T/C [16] was 26.4%, the viability, T/C [17] was 36.9% and the viability, T/C [18] was 5.65%. It also gave a viability, T/C [19] of 32.4%, a viability, T/C [20] of 32.9% and a viability, T/C [21] of 27.7%. For the same compound, the viability, T/C [22] was 30.1%, the viability, T/C [23] was 33.8% and the viability, T/C [24] was 4.38%. For the same compound, the viability, T/C [25] was 27.9%, the viability, T/C [26] was 31.8% and the viability, T/C [27] was 32.4%. The viability, T/C [28] was 28.7%, the viability, T/C [29] was 33.4% and the viability, T/C [30] was 4.12%. For the same compound, the viability, T/C [31] was 26.3%, the viability, T/C [32] was 26.2% and the viability, T/C [33] was 28%. For the same compound, the viability, T/C [34] was 31.9%, the viability, T/C [35] was 25.9% and the viability, T/C [36] was 3.79%. It also gave a viability, T/C [37] of 27.2%, a viability, T/C [38] of 21.5% and a viability, T/C [39] of 26%. For the same compound, the viability, T/C [40] was 23%, the viability, T/C [41] was 22.6% and the viability, T/C [42] was 1.83%.
CCCS(=O)(=O)Nc1ccc(F)c(C(=O)c2c[nH]c3ncc(-c4ccc(Cl)cc4)cc23)c1F + COc1c(OCCCN2CCOCC2)ccc2c3n(c(=NC(=O)c4cnc(N)nc4)nc12)CCN3 showed an IC50 (curve of first compound, second compound 0.00316 µM) of 4400 nM, an IC50 (curve of first compound, second compound 0.01 µM) of 4970 nM and an IC50 [1] of 2960 nM. The IC50 [2] was < 31.6 nM, the IC50 [3] was < 31.6 nM and the IC50 [4] was < 31.6 nM. The viability, T/C (second compound 0.00316 µM, first compound 0.0316 µM) was 88.2%, the viability, T/C (second compound 0.00316 µM, first compound 0.1 µM) was 92.8% and the viability, T/C (second compound 0.00316 µM, first compound 0.316 µM) was 80.6%. The viability, T/C (second compound 0.00316 µM, first compound 1 µM) was 90.1%, the viability, T/C (second compound 0.00316 µM, first compound 3.16 µM) was 67.2% and the viability, T/C (second compound 0.00316 µM, first compound 10 µM) was 7.48%. It also gave a viability, T/C (second compound 0.01 µM, first compound 0.0316 µM) of 71.8%, a viability, T/C (second compound 0.01 µM, first compound 0.1 µM) of 73.6% and a viability, T/C (second compound 0.01 µM, first compound 0.316 µM) of 72.9%. The viability, T/C (second compound 0.01 µM, first compound 1 µM) was 87.5%, the viability, T/C (second compound 0.01 µM, first compound 3.16 µM) was 79.7% and the viability, T/C (second compound 0.01 µM, first compound 10 µM) was 8.12%. It also gave a viability, T/C [7] of 64.8%, a viability, T/C [8] of 57.6% and a viability, T/C [9] of 67.9%. For the same compound, the viability, T/C [10] was 59%, the viability, T/C [11] was 49.8% and the viability, T/C [12] was 9.78%. The viability, T/C [13] was 32.3%, the viability, T/C [14] was 39.8% and the viability, T/C [15] was 43.3%. It also gave a viability, T/C [16] of 43.3%, a viability, T/C [17] of 31.7% and a viability, T/C [18] of 4.74%. For the same compound, the viability, T/C [19] was 16.1%, the viability, T/C [20] was 15.8% and the viability, T/C [21] was 16.7%. It also gave a viability, T/C [22] of 19.4%, a viability, T/C [23] of 18.1% and a viability, T/C [24] of 1.83%. It also gave a viability, T/C [25] of 5.69%, a viability, T/C [26] of 5.15% and a viability, T/C [27] of 7.11%. For the same compound, the viability, T/C [28] was 7.02%, the viability, T/C [29] was 5.99% and the viability, T/C [30] was 1.31%.
